Assay results taken from patent US6177438A, “Morphinan derivatives and pharmaceutical use thereof” (priority 1993, dated 2001).
Where a name gives a salt, the structure may show the parent alone.

What follows are compounds tested on acetic acid-induced writhing in ddy mice (assay: animal or person). Details: Mus musculus, sc, s.c. 15 minutes before acetic acid, read-out: ED50.
Assay type: in vivo, 5 week old ddy mice
Experimental: 5 week old ddy mice were used in this test. After intraperitoneal administration of 0.1 ml of 0.6% aqueous acetic acid per 10 g of body weight, the number of writhing reactions that occurred in 10 minutes starting 10 minutes after administration was evaluated for the indicator. The test drug was administered subcutaneously into the backs of the animals 15 minutes before administration of acetic acid.

| SMILES | ED50 |
| --- | --- |
| CCN(C(=O)Cc1ccc(Cl)c(Cl)c1)[C@@H]1CC[C@@]2(O)[C@H]3Cc4ccc(O)c5c4[C@@]2(CCN3CC2CC2)[C@H]1O5 [Compound 54, 17-cyclopropylmethyl-4,5α-epoxy-3,14β-dihydroxy-6β-(N-ethyl-3,4-dichlorophenylacetoamido)morphinan.cndot.hydrochloride] | 0.72 mg/kg |
| CN([C@H]1CC[C@@]2(O)[C@H]3Cc4ccc(O)c5c4[C@@]2(CCN3CC2CC2)[C@H]1O5)S(=O)(=O)Cc1ccc(Cl)c(Cl)c1 [Compound 128, 17-cyclopropylmethyl-4,5α-epoxy-3,14β-dihydroxy-6α-(N-methyl-3,4-dichlorophenylmethanesulfonamido)morphinan.cndot.tartrate] | 0.63 mg/kg |
| CN(C(=S)NCc1ccccc1)[C@H]1CC[C@@]2(O)[C@H]3Cc4ccc(O)c5c4[C@@]2(CCN3CC2CC2)[C@H]1O5 [Compound 133, 17-cyclopropylmethyl-3,14β-dihydroxy-4,5α-epoxy-6α-(N-methyl-N'-benzylthioureido)morphinan.cndot.tartrate] | 0.044 mg/kg |
| CN(C(=O)OCc1cccnc1)[C@H]1CC[C@@]2(O)[C@H]3Cc4ccc(O)c5c4[C@@]2(CCN3CC2CC2)[C@H]1O5 [Compound 44, 17-cyclopropylmethyl-4,5α-epoxy-3,14β-dihydroxy-6α-[N-methyl-(3-pyridyl)methyloxycarbamido]morphinan.cndot.tartrate] | 0.084 mg/kg |
| CN(C(=O)Cc1cccc(N=C=S)c1)[C@H]1CC[C@@]2(O)[C@H]3Cc4ccc(O)c5c4[C@@]2(CCN3CC2CC2)[C@H]1O5 [Compound 149, 17-cyclopropylmethyl-3,14β-dihydroxy-4,5α-epoxy-6α-(N-methyl-3-isothiocyanatophenylacetamido)morphinanan.cndot.methanesulfonate] | 0.013 mg/kg |
| CN(C(=O)/C=C/c1ccoc1)[C@@H]1CC[C@@]2(O)[C@H]3Cc4cccc5c4[C@@]2(CCN3CC2CC2)[C@H]1O5 [Compound 204, 17-cyclopropylmethyl-4,5α-epoxy-14-hydroxy-6β-[N-methyl-trans-3-(3-furan)acrylamido]morphinan hydrochloride] | 0.013 mg/kg |
| CN(C(=O)COc1c(Cl)cc(Cl)cc1Cl)[C@@H]1CC[C@@]2(O)[C@H]3Cc4ccc(O)c5c4[C@@]2(CCN3CC2CC2)[C@H]1O5.Cl [Compound 199, 17-cyclopropylmethyl-3,14β-dihydroxy-4,5α-epoxy-6β-(N-methyl-2,4,6-trichlorophenoxyacetamido)morphinan hydrochloride] | 0.017 mg/kg |
| Cc1occc1/C=C/C(=O)N(C)[C@@H]1CC[C@@]2(O)[C@H]3Cc4ccc(O)c5c4[C@@]2(CCN3CC2CC2)[C@H]1O5.Cl (relative stereo) [Compound 159, 17-cyclopropylmethyl-3,14β-dihydroxy-4,5α-epoxy-6β-[N-methyl-trans-3-(2-methyl-3-furyl)acrylamido]morphinan hydrochloride] | 0.0032 mg/kg |
| CN(C(=O)CCCCCc1ccccc1)[C@@H]1CC[C@@]2(O)[C@H]3Cc4ccc(O)c5c4[C@@]2(CCN3CC2CC2)[C@H]1O5 [Compound 202, 17-cyclopropylmethyl-3,14β-dihydroxy-4,5α-epoxy-6β-(N-methyl-6-phenylhexanoamido)morphinan hydrochloride] | 0.083 mg/kg |
| CN(C(=O)/C=C/c1ccc(Cl)c(Cl)c1)[C@@H]1CC[C@@]2(O)[C@H]3Cc4ccc(O)c5c4[C@@]2(CCN3CC2CC2)[C@H]1O5 [Compound 179, 17-cyclopropylmethyl-3,14β-dihydroxy-4,5α-epoxy-6β-(N-methyl-3,4-dichlorocinnamamido)morphinan hydrochloride] | 0.0028 mg/kg |
| COCCOC(=O)N(C)[C@H]1CC[C@@]2(O)[C@H]3Cc4ccc(O)c5c4[C@@]2(CCN3CC2CC2)[C@H]1O5 [Compound 49, 17-cyclopropylmethyl-4,5α-epoxy-3,14β-dihydroxy-6α-(N-methyl-2-methoxyethoxycarbamido)morphinan.cndot.tartrate] | 0.026 mg/kg |
| COc1ccc(C#CC(=O)N(C)[C@@H]2CC[C@@]3(O)[C@H]4Cc5ccc(O)c6c5[C@@]3(CCN4CC3CC3)[C@H]2O6)cc1.Cl [Compound 176, 17-cyclopropylmethyl-3,14β-dihydroxy-4,5α-epoxy-6β-[N-methyl-3-(4-methoxyphenyl)propiolamido]morphinan hydrochloride] | 0.11 mg/kg |
| CN(C(=O)/C=C\c1ccoc1)[C@@H]1CC[C@@]2(O)[C@H]3Cc4ccc(O)c5c4[C@@]2(CCN3CC2CC2)[C@H]1O5.O=C(O)C(O)C(O)C(=O)O (relative stereo) [Compound 174, 17-cyclopropylmethyl-3,14β-dihydroxy-4,5α-epoxy-6β-[N-methyl-cis-3-(3-furyl)acrylamido]morphinan tartrate] | 0.16 mg/kg |
| CN(C(=O)/C=C/c1cccnc1)[C@@H]1CC[C@@]2(O)[C@H]3Cc4ccc(O)c5c4[C@@]2(CCN3CC2CC2)[C@H]1O5.O=C(O)C(O)C(O)C(=O)O (relative stereo) [Compound 153, 17-cyclopropylmethyl-3,14β-dihydroxy-4,5α-epoxy-6β-[N-methyl-trans-3-(3-pyridyl)acrylamido]morphinan tartrate] | 0.13 mg/kg |
| CN(C(=O)CCc1cccnc1)[C@H]1CC[C@@]2(O)[C@H]3Cc4ccc(O)c5c4[C@@]2(CCN3CC2CC2)[C@H]1O5 [Compound 41, 17-cyclopropylmethyl-3,14β-dihydroxy-4,5α-epoxy-6α-[N-methyl-3-(3-pyridyl)propionamido]morphinan.cndot.tartrate] | 0.39 mg/kg |
| COc1ccc2c3c1O[C@H]1[C@H](N(C)C(=O)/C=C/c4ccoc4)CC[C@@]4(O)[C@@H](C2)N(CC2CC2)CC[C@]314 [Compound 217, 17-cyclopropylmethyl-4,5α-epoxy-14β-hydroxy-3-methoxy-6β-[N-methyl-trans-3-(3-furan)acrylamido]morphinan hydrochloride] | 0.018 mg/kg |
| CN(C(=O)CCC1CCCC1)[C@@H]1CC[C@@]2(O)[C@H]3Cc4ccc(O)c5c4[C@@]2(CCN3CC2CC2)[C@H]1O5 [Compound 64, 17-cyclopropylmethyl-3,14β-dihydroxy-4,5α-epoxy-6β-(N-methyl-3-cyclopentylpropionamido)morphinan.cndot.tartrate] | 0.097 mg/kg |
| Cc1ccc(C#CC(=O)N(C)[C@H]2CC[C@@]3(O)[C@H]4Cc5ccc(O)c6c5[C@@]3(CCN4CC3CC3)[C@H]2O6)cc1.Cl [Compound 183, 17-cyclopropylmethyl-3,14β-dihydroxy-4,5α-epoxy-6α-[N-methyl-3-(4-methylphenyl)propiolamido]morphinan hydrochloride] | 0.013 mg/kg |
| CN(C(=O)C#Cc1ccco1)[C@H]1CC[C@@]2(O)[C@H]3Cc4ccc(O)c5c4[C@@]2(CCN3CC2CC2)[C@H]1O5.O=C(O)C(O)C(O)C(=O)O [Compound 186, 17-cyclopropylmethyl-3,14β-dihydroxy-4,5α-epoxy-6α-[N-methyl-3-(2-furyl)propiolamido]morphinan tartrate] | 0.0061 mg/kg |
| COc1ccc(C#CC(=O)N(C)[C@H]2CC[C@@]3(O)[C@H]4Cc5ccc(O)c6c5[C@@]3(CCN4CC3CC3)[C@H]2O6)cc1.O=C(O)C(O)C(O)C(=O)O [Compound 187, 17-cyclopropylmethyl-3,14β-dihydroxy-4,5α-epoxy-6α-[N-methyl-3-(4-methoxyphenyl)propiolamido]morphinan tartrate] | 0.026 mg/kg |
